Values after ≈ are worked out from the molar mass of the structure shown.
How the values were obtained:
[1] = system: MRSA-1; assay: MIC, clinical isolate of S. aureus; assay type: cell-based; details: Staphylococcus aureus; clinical isolate MRSA-1; read-out: MIC
In short: (§1)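 Activity of thiosemicarbazides was measured on standard Gram-positive ATCC cultures and on hospital-derived S. aureus isolates. Five clinical antibiotics served as comparators: amoxicillin, gentamicin, levofloxacin, linezolid and vancomycin.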

[2] = system: MSSA-1; assay: MIC, clinical isolate of S. aureus; assay type: cell-based; details: Staphylococcus aureus; clinical isolate MSSA-1; read-out: MIC
In short: as §1

[3] = system: MSSA-2; assay: MIC, clinical isolate of S. aureus; assay type: cell-based; details: Staphylococcus aureus; clinical isolate MSSA-2; read-out: MIC
In short: as §1

[4] = system: MSSA-3; assay: MIC, clinical isolate of S. aureus; assay type: cell-based; details: Staphylococcus aureus; clinical isolate MSSA-3; read-out: MIC
In short: as §1

[5] = system: MSSA-4; assay: MIC, clinical isolate of S. aureus; assay type: cell-based; details: Staphylococcus aureus; clinical isolate MSSA-4; read-out: MIC
In short: as §1

[6] = MTT cytotoxicity assay; assay type: cell-based, human; details: human, Hs27 foreskin fibroblast cells (ATCC CRL-1634), 25 µg/mL, 24 h, vehicle control = 100%
[7] = system: human foreskin fibroblast Hs27 cells (CRL-1634); assay: MTT cytotoxicity assay; assay type: cell-based; details: Homo sapiens, 24 h of treatment
[8] = system: HeLa cell line; assay: Cytotoxicity (earlier study); assay type: cell-based; details: HeLa IC30 / MIC S. aureus ATCC 25923
Excerpt: (§2) For the compound with the best solubility (2), its cytotoxicity against L929 and HeLa cells was presented previously. The cytotoxicity was expressed as rigorous IC30 values, defined as the highest dilutions of test samples that cause 30% or greater destruction of cells.

[9] = system: L929 cell line; assay: Cytotoxicity (earlier study); assay type: cell-based; details: L929 IC30 / MIC S. aureus ATCC 25923
Excerpt: as §2

[10] = system: S. aureus ATCC 25923; assay: Checkerboard broth dilution synergy assay; assay type: cell-based
In short: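 Checkerboard broth microdilution against S. aureus ATCC 25923 paired each thiosemicarbazide with amoxicillin, gentamicin, levofloxacin, linezolid or vancomycin. FICI is the sum of each drug's MIC in combination divided by its MIC alone: ≤0.5 synergy, 0.5–1 additive, 1–4 indifferent, ≥4 antagonism.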

[11] = system: S. aureus ATCC 6538; parameters: method as in PMID 25897586; details: S. a. ATCC 6538; compounds 1–5; cited from earlier work
[12] = system: S. aureus ATCC 25923; parameters: method as in PMID 25897586; details: S. a. ATCC 25923; compounds 1–5; cited from earlier work
[13] = system: S. epidermidis ATCC 12228; parameters: method as in PMID 25897586; details: S. e. ATCC 12228; compounds 1–5; cited from earlier work
[14] = system: B. subtilis ATCC 6633; parameters: method as in PMID 25897586; details: B. s. ATCC 6633; compounds 1–5; cited from earlier work
[15] = system: B. cereus ATCC 10876; parameters: method as in PMID 25897586; details: B. c. ATCC 10876; compounds 1–5; cited from earlier work
[16] = system: M. luteus ATCC 10240; parameters: method as in PMID 25897586; details: M. l. ATCC 10240; compounds 1–5; cited from earlier work
[17] = system: L929 cell line; parameters: method as in PMID 25897586; details: IC30 = 30% or greater destruction of cells; cited from earlier work
[18] = system: HeLa cell line; parameters: method as in PMID 25897586; details: IC30 = 30% or greater destruction of cells; cited from earlier work

MIC [1]: 500 µg/mL (≈ 1310 µM)
MIC [2]: > 500 µg/mL
MIC [3]: > 500 µg/mL
MIC [4]: > 500 µg/mL
MIC [5]: 500 µg/mL (≈ 1310 µM)
Structure (SMILES): Cc1cccc(C(=O)NC(=S)NNC(=O)c2cccc(Cl)c2Cl)c1 [compound 2]
viability at 24 h, 25 µg/mL [6]: 76.7%
IC50 [7]: > 25 µg/mL
selectivity index SI (SI = IC30/MIC) [8]: 3.97
selectivity index SI (SI = IC30/MIC) [9]: 3.94
interaction in combination ([10]; combination with amoxicillin): additive
interaction in combination ([10]; combination with gentamicin): no interactions
interaction in combination ([10]; combination with levofloxacin): no interactions
interaction in combination ([10]; combination with linezolid): synergistic
interaction in combination ([10]; combination with vancomycin): no interactions
MIC [11]: 7.81 µg/mL (≈ 20.4 µM)
MIC [12]: 7.81 µg/mL (≈ 20.4 µM)
MIC [13]: 3.91 µg/mL (≈ 10.2 µM)
MIC [14]: 0.49 µg/mL (≈ 1.28 µM)
MIC [15]: 1.95 µg/mL (≈ 5.1 µM)
MIC [16]: 0.98 µg/mL (≈ 2.56 µM)
IC30 [17]: 30.78 µg/mL (≈ 80.5 µM)
IC30 [18]: 30.97 µg/mL (≈ 81 µM)
